Data taken from PubChem BioAssay (NCI).
Several values for one entry are separate records, joined by “and”; a condition that tells them apart may be missing. Identical values can stand only once.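 Grown in 96-well plates, cells were treated for 48 hours with each compound at five concentrations. Insufficient inhibition: endpoint recorded as highest concentration tested. GI50 marks 50% less growth. TGI marks complete inhibition of growth.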

Key:
Assay in all cases: NCI anticancer screen, dose series, 48 h
[1] = test system: DU-145 prostate
[2] = test system: HCT-15 colon
[3] = test system: HOP-62 NSCLC
[4] = test system: HT29 colon
[5] = test system: LOX IMVI melanoma
[6] = test system: MCF7 breast
[7] = test system: NCI-H23 lung
[8] = test system: UO-31 renal
[9] = test system: SK-MEL-2 melanoma
[10] = test system: UACC-257 melanoma

Structure (SMILES) | GI50 [1] | TGI [1] | GI50 [2] | TGI [2] | GI50 [3] [µM] | TGI [3] | GI50 [4] | TGI [4] [µM] | GI50 [5] | TGI [5] | GI50 [6] | TGI [6] | GI50 [7] [µM] | TGI [7] | GI50 [8] [µM] | TGI [8] [µM] | TGI [9] [µM] | TGI [10] | GI50 [9] [µM] | GI50 [10] [µM]
CCOC(=O)c1cc2c(n1Cc1ccccc1OC)-c1oncc1CCC2 | 5.27 µM | > 100 µM | 2.24 µM | > 100 µM | 1.89 | 9.9 µM | 0.912 µM | > 100 | 7.64 µM | > 100 µM | 0.716 µM | > 100 µM | 8.52 | > 100 µM | 6.53 | > 100 | – | – | – | –
COc1cc(/C=C/c2ccnc3ccccc23)cc(OC)c1OC | 3.06 µM | 30.3 µM and 20.7 µM | 1.92 µM | > 100 µM and 70.1 µM | 5.87 | 37.7 µM and > 100 µM | 1.72 µM | – | 5.25 µM | 29.3 µM and > 100 µM | 2.35 µM | 25.2 µM and > 100 µM | – | 6.92 µM and 9.64 µM | – | > 100 | > 100 | 91.6 µM and > 100 µM | – | –
O=C(O)c1[nH]c2c([N+](=O)[O-])cc([N+](=O)[O-])cc2c1C(=O)O | – | > 100 µM | – | > 100 µM | – | > 100 µM | – | > 100 | – | > 100 µM | – | > 100 µM | – | > 100 µM | – | > 100 | > 100 | > 100 µM | – | –
C[C@@H](Oc1cc(-c2cnn(C3CCNCC3)c2)cnc1N)c1c(Cl)cc(F)cc1Cl | 3.25 µM | 13.6 µM | 2.7 µM | 12.5 µM | 2 | 9.52 µM | 1.11 µM | 3.56 | 1.37 µM | 3.21 µM | 0.516 µM | 2.12 µM | 1.93 | 14.8 µM | 3.16 | 13.2 | 5.41 | 3.07 µM | 1.95 | 1.49
c1ccc2c(c1)[nH]c1c3ccccc3sc21 | – | > 100 µM | – | > 100 µM | – | > 100 µM | – | > 100 | – | > 100 µM | – | > 100 µM | – | > 100 µM | – | > 100 | > 100 | > 100 µM | – | –
Cc1cc(OCc2nn(CN3CCN(C)CC3)c(=S)n2/N=C/c2ccc(F)cc2)ccc1Cl | 20.7 µM | 40.7 µM | 15.2 µM | 29.3 µM | 18.7 | 34.4 µM | – | – | 18.3 µM | 32.7 µM | 18.4 µM | 34.4 µM | 16.9 | 31.1 µM | 17.6 | 32.9 | 37.6 | 36.7 µM | 18.5 | 19.2
CC(=N/NC(N)=S)/C(C)=N/NC(N)=S | – | > 100 µM | – | > 100 µM | – | > 100 µM | – | > 100 | – | > 100 µM | – | > 100 µM | – | > 100 µM | – | > 100 | > 100 | > 100 µM | – | –
O=c1[nH]c2ccccc2n1C1CCN(CCOc2ccccc2)CC1 | 15.8 µM | > 100 µM | 20.6 µM | > 100 µM | 50.3 | > 100 µM | 35.8 µM | > 100 | 15.5 µM | > 100 µM | 26.3 µM | > 100 µM | 30.5 | > 100 µM | 34.1 | > 100 | > 100 | > 100 µM | 32.8 | 70.7
C1=C\CCCCN2CC[C@H]3[C@H](CCCC/C=C\CCCN4C[C@@H](CCCCC/1)C[C@@H]3C4)C2 | 11.7 µM | 23.9 µM | 2.22 µM | 7.77 µM | 15.7 | 29.8 µM | 3.28 µM | 12.9 | 4.3 µM | 14.8 µM | 3.58 µM | 15.1 µM | 14.3 | 30.2 µM | 4.35 | 10.5 | 26.3 | 3.5 µM | 10.4 | 1.74
CC(=N\O)/C(C)=N/O.CC(=N\O)/C(C)=N/O.[Fe].[NH2-].c1c[nH]cn1 | > 100 µM | > 100 µM | > 100 µM | > 100 µM | > 100 | > 100 µM | > 100 µM | > 100 | 3.17 µM | 13.2 µM | > 100 µM | > 100 µM | – | – | 1.43 | 4.34 | > 100 | > 100 µM | > 100 | > 100
O=C(O)c1cc(Cl)cc(Cc2cc(Cl)cc(C(=O)O)c2O)c1O | – | > 100 µM | – | > 100 µM | – | > 100 µM | – | > 100 | – | > 100 µM | – | > 100 µM | – | > 100 µM | – | > 100 | > 100 | – | – | –
NC(Cc1c[nH]c2cccc(F)c12)C(=O)O (stereo not drawn) | 32 µM and 297 µM | > 4500 µM | 61.6 µM and 266 µM | 2870 µM | – | 3180 µM | 36.5 µM and 300 µM | 2620 | 51.6 µM and 211 µM | 982 µM | 35.4 µM and 327 µM | 1650 µM | – | 3180 µM | 842 | > 4500 | > 4500 | > 4500 µM | – | 1380
CCCCC[C@H]1C/C=C2/C(=O)C(Cl)=C[C@@H]2C/C=C\CCCC(=O)O1 | 0.638 µM | 2.51 µM | 0.284 µM | 0.895 µM | 0.53 | 1.15 µM | 0.461 µM | 2.26 | 0.126 µM | 0.449 µM | 0.0886 µM | 2.7 µM | 0.493 | 1.18 µM | 0.379 | 0.717 | 1.13 | 1.41 µM | 0.439 | 0.513
C=C1C(=O)O[C@H]2[C@H]1CC/C(COC(=O)/C=C\C(=O)NCc1ccc(Cn3c(=O)sn(-c4ccc(Cl)cc4)c3=O)cc1)=C\CC[C@@]1(C)O[C@@H]21 | 0.638 µM | 1.3 µM | 0.331 µM | 1.47 µM | 2.12 | 7.63 µM | 0.369 µM | 1.52 | 0.193 µM | 0.789 µM | 0.36 µM | 1.41 µM | 0.884 | 1.88 µM | 0.515 | 1.1 | 1.89 | 1.72 µM | 0.904 | 0.8
CC[Si](CC)(CC)OC1[C@@H](O[Si](CC)(CC)CC)[C@@H](CNC(=O)NC)O[C@H]1n1cnc2c(NC(=O)Nc3ccccc3)ncnc21 (stereo partly drawn) | 4.41 µM | > 100 µM | 3.78 µM | > 100 µM | 16 | > 100 µM | 2.4 µM | 6.13 | 2.61 µM | 7.85 µM | 3.24 µM | 14.3 µM | 3.64 | > 100 µM | 2.8 | 18.1 | 5.9 | 55.8 µM | 2.49 | 2.81
